Earlier results as cited in patent US11376246B2, “Inhibiting mutant IDH-1” (FORMA Therapeutics, Inc., priority 2018, dated 2022).

Details: Literature reported data; cited from earlier work

Structure (SMILES): Cc1cc(-c2cnc([C@H](C)Nc3nccc(N4C(=O)OC[C@@H]4C(C)C)n3)nc2)ccc1F [IDH889]
- BBB+: Yes
